Results from patent EP0626016B1, “[…] […]” (BRITISH TECHNOLOGY GROUP LIMITED, priority 1992, dated 1993).
Like-named read-outs stand apart in the source and are kept apart here.

Target: T1, HRP Type VIA (Armoracia rusticana, UniProt P00433)
T1 sequence (P00433 31-338): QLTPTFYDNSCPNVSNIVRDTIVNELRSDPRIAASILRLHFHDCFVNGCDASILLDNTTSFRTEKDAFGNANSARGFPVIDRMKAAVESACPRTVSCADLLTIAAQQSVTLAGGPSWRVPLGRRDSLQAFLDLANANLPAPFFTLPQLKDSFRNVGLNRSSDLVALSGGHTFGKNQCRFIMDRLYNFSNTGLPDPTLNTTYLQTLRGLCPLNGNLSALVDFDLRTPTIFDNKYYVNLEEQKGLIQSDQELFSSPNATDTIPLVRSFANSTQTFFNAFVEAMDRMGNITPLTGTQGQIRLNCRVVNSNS
Details: 10µl test compound; for (d) Signal: Background: ratio (control = with no enhancer): control value in brackets not reported

| Compound | (a) Decrease in background (without HRP with test cpd.) (0.01 mg/ml) | (b) Increase in signal (with HRP, with test cpd.) (0.01 mg/ml) | (c) Increase in signal: background ratio (0.01 mg/ml) | (a) Decrease in background (without HRP with test cpd.) (0.1 mg/ml) | (b) Increase in signal (with HRP, with test cpd.) (0.1 mg/ml) | (c) Increase in signal: background ratio (0.1 mg/ml) | (a) Decrease in background (without HRP with test cpd.) (1 mg/ml) | (b) Increase in signal (with HRP, with test cpd.) (1 mg/ml) | (c) Increase in signal: background ratio (1 mg/ml) | (d) Signal: Background: ratio (control = with no enhancer) (0.01 mg/ml) | (d) Signal: Background: ratio (control = with no enhancer) (0.1 mg/ml) | (d) Signal: Background: ratio (control = with no enhancer) (1 mg/ml) |
| --- | --- | --- | --- | --- | --- | --- | --- | --- | --- | --- | --- | --- |
| 2-benzimidazolylphenylboronic acid [Compound 1046] | Y | N | N (N = no) | Y | N | N (N = no) | Y | N | N (N = no) | – | – | – |
| Cc1ccc(B(O)O)cc1 [Compound 1034, 4-methylphenylboronic acid] | Y | N | Y (Column (c) shows whether there was an increase in the signal:background ratio by over 25% of the control value (Y = yes) | Y | Y | Y (Column (c) shows whether there was an increase in the signal:background ratio by over 25% of the control value (Y = yes) | Y | N | N (N = no) | 3.6 (1.9) | 41.2 (2.9) | – |
| Cc1ccccc1B(O)O [Compound 1009, 2-tolueneboronic acid] | Y | N | N (N = no) | Y | N | Y (Column (c) shows whether there was an increase in the signal:background ratio by over 25% of the control value (Y = yes) | Y | N | N (N = no) | 1.9 | 2.5 | 0.6 (1.8) |
| OB(O)c1ccc(Cl)c(Cl)c1 [Compound 1024, 3,4-dichlorophenylboronic acid] | Y | N | N (N = no) | Y | Y | Y (Column (c) shows whether there was an increase in the signal:background ratio by over 25% of the control value (Y = yes) | Y | N | Y (Column (c) shows whether there was an increase in the signal:background ratio by over 25% of the control value (Y = yes) | – | 5.4 (2.8) | 7.6 (4.5) |
| Clc1ccc(OB(Oc2ccc(Cl)cc2)c2ccc(Cl)cc2)cc1 [Compound 1041, 4-chlorophenyl-di-(4'-chlorophenoxy)borane] | Y | Y | Y (Column (c) shows whether there was an increase in the signal:background ratio by over 25% of the control value (Y = yes) | Y | Y | Y (Column (c) shows whether there was an increase in the signal:background ratio by over 25% of the control value (Y = yes) | Y | Y | Y (Column (c) shows whether there was an increase in the signal:background ratio by over 25% of the control value (Y = yes) | 6.3 (1.9) | 360.2 (2.8) | 2606.2(4.5) |
| OCC(CO)(CO)COB(O)O [Compound 1017, pentaerythritol borate] | Y | N | N (N = no) | Y | Y | Y (Column (c) shows whether there was an increase in the signal:background ratio by over 25% of the control value (Y = yes) | Y | N | N (N = no) | 1.8 | 2.5 | 1.8 (1.8) |
| O=C(CCl)Nc1cccc(B(O)O)c1 [Compound 1031, 3-chloroacetylaminophenylboronic acid] | Y | N | N (N = no) | Y | N | N (N = no) | Y | N | N (N = no) | 2.1 (2.0) | 3.3 (2.9) | – |
| boroglycine [Compound 1015] | Y | Y | N (N = no) | Y | Y | Y (Column (c) shows whether there was an increase in the signal:background ratio by over 25% of the control value (Y = yes) | Y | N | Y (Column (c) shows whether there was an increase in the signal:background ratio by over 25% of the control value (Y = yes) | 2.3 | 2.9 | 3.1 (2.1) |
